The results in this text go back to patent US12233047B2, “Pharmaceutical combination and use thereof” (ASCENTAGE PHARMA (SUZHOU) CO., LTD., priority 2019, dated 2025).

For the assay, the system named is Human AML cell line MV-4-11 (FLT3-ITD positive and wild type TP53 gene). Put plainly: Human MV-4-11 AML subcutaneous mouse xenograft model. The assay is classed as in vivo. Conditions: MV-4-11 subcutaneous xenograft, Compound 23 10 mg/kg, Compound C 30 mg/kg. Here is the method:
The formulation of Compound C was prepared as homogenous suspension in 0.2% HPMC using a mortar. The drug suspension was prepared every three days or once a week and placed at 4° C. when not in use. Before use, the drug suspension was placed at room temperature and shaken to mix well. The formulation of Compound C was administered to mice via p.o. in a volume of 10 mL/kg. […] The drug suspension was prepared once every other day and placed at 4° C. when not in use. Before use, the drug suspension was placed at room temperature and shaken well. […] MV-4-11 cells (Human AML cell line MV-4-11 (FLT3-ITD positive and wild type TP53 gene)) were maintained in IMDM (Cat. C12440500BT, GIBCO), with 10% fetal bovine serum (Cat. 10099-141, GIBCO), 1% L-glutamine, 100 U/mL penicillin G and 100 μg/mL streptomycin (Cat. GNM15140, Hangzhou Geno Biomedical Technology Co., Ltd). Cells were incubated at 37° C. in a humidified incubator with 5% CO2. Six to eight weeks old, female, NOD SCID and BALB/c nude mice were used. Animals were obtained from Vital River Laboratories (VRL, Beijing, China, license number SCXK(J) 2012-0001 and SCXK(J) 2016-0006). The body weights were 17-24 g. Randomization was conducted when the size of xenograft tumors reached 100-150 mm^3. Based on the size of the tumor and body weight, animals were randomly assigned into experimental groups. […] MV-4-11 subcutaneous xenograft models were established by subcutaneously injecting tumor cells (1×10^7 cells (50% Matrigel)/mouse) into the right flank of the mouse under the sterile condition. When the tumors reached an appropriate size (100-200 mm^3), mice were randomized into 6 mice per group and treatment was initiated (day 1) according to Table 4. [table] The tumors sizes and animal body weights were measured twice a week. Tumor volumes were estimated from measurements of two diameters of the individual tumors as follows: Tumor Volume (mm^3)=(a×b^2)/2 Relative tumor volume (RTV) were calculated according to the follows: RTV=Vt/V1 where V1 and Vt were respectively the average tumor volume on the first day of treatment (day 1) and the average tumor volume on a certain time point (day T). Standard NCI procedures were used to calculate tumor parameters (Teicher, B. A. (2011). “Tumor Models in Cancer Research.” Second Edition, Human Press). Percent tumor growth inhibition (% T/C) was calculated as the mean RTV of treated tumors (T) divided by the mean RTV of control tumors (C)×100%. […] A body weight loss (mean of group) of greater than 20%, or greater than 20% of drug deaths are considered to indicate an excessively toxic dosage. The synergistic analysis was performed using the following formula described in Clarke R. Issues in experimental design and endpoint analysis in the study of experimental cytotoxic agents in vivo in breast cancer and other models[J]. Breast Cancer Research & Treatment, 1997, 46(2-3):255-278, which is incorporated by reference in its entirety: expected value=(A/C)×(B/C); actual value=(AB)/C; A: RTV of drug A; B: RTV of drug B; C=RTV of the vehicle control group; AB=RTV of the combination group. Ratio=expected/actual value. […] A ratio=1 indicates the two drugs have additive effects. A ratio <1 indicates the two drugs may have antagonist effects. According to the earlier publication (Gao, H., et al. (2015). “High-throughput screening using patient-derived tumor xenografts to predict clinical trial drug response” Nat Med 21: 1318), additional measurements of response included stable disease (SD), partial tumor regression (PR), and complete regression (CR) were determined by comparing tumor volume change at day t to its baseline: tumor volume change (%)=(Vt−V1)/V1. […] For each time t, the average of tumor volume change from t=1 to t was also calculated. […]
For orientation: In xenograft studies the graft and the host belong to different species.

With `Cc1ccc(C(=O)Nc2ccc(CN3CCN(C)CC3)c(C(F)(F)F)c2)cc1C#Cc1cnc2[nH]ncc2c1` [Compound 23, 3-(2-(1H-pyrazolo[3,4-b]pyridin-5-yl)ethynyl)-4-methyl-N-(4-((4-methylpiperazin-1-yl)methyl)-3-(trifluoromethyl)phenyl)benzamide], the “Tumor weight on D 22 (Mean ± SEM)” value (day 22, p.o. q2d × 22 d, vehicle 2.29 ± 0.29, in g (unit assumed)) was found to be 0.67 ± 0.11. In addition, the “T/C(%)@D 22” value (mean RTV treated/control, day 22, p.o. q2d) amounted to 28.6%. Under “relative tumor volume day 22, p.o. q2d, vehicle 18.2 ± 3.3”, the “RTV@D 22” value is 5.2 ± 0.9.
